Laboratory results published in US9168269B2, “Inhibitors of long and very long chain fatty acid metabolism as broad spectrum anti-virals” (THE TRUSTEES OF PRINCETON UNIVERSITY, priority 2010, dated 2015).
Read-outs that look alike come from different tables or passages of the source.

What was measured:
Liver ACAT = conditions: cited from earlier work
HCMV AD169 strain = experiment: microbe, parasite or virus in culture; format: cell-based, human cytomegalovirus; conditions: for decrease in HCMV virus titer: 96 h after infection; for effect on HCMV replication / yield, in words: concentrations as in the sentence or figure; for reduction of HCMV viral yield: 96 h post infection
late viral protein pUL99 = experiment: HCMV late viral protein expression (pUL99-GFP); format: cell-based, human cytomegalovirus
MRCS human fibroblasts [1] = tested on: MRCS human fibroblasts
Procedure: (§1) Top panels: About 90% confluent MRCS human fibroblasts were treated with the indicated concentrations of triacsin C or the carrier in which the drug was dissolved (DMSO) in the presence of 10% fetal calf serum and photographed 96 h later. Bottom left panel: About 90% confluent MRCS fibroblasts were either mock infected or infected with the AD169 strain of HCMV at a multiplicity of (0.1 pfu/cell). The uninfected or infected cells received DMSO (solvent for the drug) or the drug for 96 h before cells were assayed for viability. Bottom right panel: About 90% confluent MRCS fibroblasts were infected with HCMV at a multiplicity of (0.1 pfu/cell) in the presence of DMSO (0 nM triacsin C) or triacsin C at the indicated concentrations. Infected fibroblasts were maintained in medium containing 10% fetal calf serum. Virus yield in the medium at 96 h after infection was determined by infecting fibrobalsts and assaying IE1 expression by immunofluorescence 24 h later. 96 h after infection, cells were harvested into culture medium and sonicated to release cell-associated virus. Virus yield in the medium was determined by infecting fibroblasts and assaying IE1 expression by immunofluorescence 24 h later.
(§2) The effect of triacsin C on the viability of MRCS human fibroblasts in culture medium containing 10% fetal calf serum was tested. At the time drug was added, cells were about 90% confluent.

hELOVL6 = molecular target: T1, hELOVL6 (Homo sapiens, UniProt Q9H5J4); conditions: in vitro, cited from earlier work
T1 sequence (Q9H5J4 1-265): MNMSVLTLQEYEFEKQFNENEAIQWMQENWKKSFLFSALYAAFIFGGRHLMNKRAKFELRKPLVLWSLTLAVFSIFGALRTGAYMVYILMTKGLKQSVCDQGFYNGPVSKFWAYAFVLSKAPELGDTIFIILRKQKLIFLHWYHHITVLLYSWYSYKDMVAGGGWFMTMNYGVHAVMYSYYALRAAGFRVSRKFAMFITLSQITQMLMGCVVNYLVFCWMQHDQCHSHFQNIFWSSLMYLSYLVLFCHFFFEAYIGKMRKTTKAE

[2] = tested on: lipid droplets in HCMV infected cells; experiment: lipid droplets by oil red O staining; format: cell-based, human
Text: A pair of related enzymes that are both required for HCMV replication are ADP-ribosyltransferase 1 and 3 (ART1 and ART3). Inhibition of either of these enzymes led to a marked reduction in HCMV replication, ˜40-fold for ART1 and ˜10-fold for ART3. Without being bound by any particular mechanism, although ADP-ribosyltransfer is not per se a reaction of lipid metabolism, ADP ribosylation plays a key role in regulating lipid storage via targets including the protein CtBP1/BARS. Mono-ADP ribosylation of this protein results in loss of lipid droplets due to a dramatic efflux of fatty acids.
Thus host cell components involved in lipid droplet production and consumption provide antiviral targets. In addition to siRNA against the relevant cellular machinery, other means of inhibiting lipid droplet formation include the compounds spylidone, PF-1052 (a fungal natural product isolated from Phoma species), vermisporin, beauveriolides, phenochalasins, isobisvertinol, K97-0239, and rubimaillin.
Lipid droplet formation and depletion is associated with HCMV infection. At early phase of infection (2-12 hours after infection) lipid droplets are induced within the infected cells and thereafter, a complete loss of lipid droplets is observed (48-72 hours after infection).

Liquid Droplet = conditions: read-out: Liquid Droplet inhibition IC50; cited from earlier work
ACAT = conditions: cited from earlier work
HCMV = experiment: siRNA screen, infectious yield of HCMV; conditions: enzyme knockdown by siRNA; fibroblasts, HCMV 0.1 pfu/cell, 96 h
Procedure: To identify host cell enzymes whose inhibition could decrease the production of virus progeny, an siRNA screen was performed to test for roles of specific enzymes involved directly or indirectly in lipid metabolism. The siRNA screen was designed to test for effects of inhibiting specific siRNA targets on the infectious yield of HCMV. The screen was performed in 96-well plates using a portion of an siRNA library purchased from Sigma. Each target was assayed with three different siRNAs.
Also at 96 h after infection, the medium was removed from each well and used to infect fibroblasts in a new 96-well plate, and infectivity was quantified by staining for immunofluorescence and counting IE1-positive cells 24 h later.

hELOVL3 = hELOVL3 (Homo sapiens, UniProt Q9HB03); conditions: in vitro; cited from earlier work
ELOVL6 = conditions: 'in vivo' as printed; cited from earlier work
ELOVL3 = conditions: 'in vivo' as printed; cited from earlier work
MRCS human fibroblasts [3] = experiment: host cell viability, morphology and toxicity in fibroblasts; conditions: for toxicity on the cells: at the antiviral doses tested; for appearance of cells: 96 h
Procedure: as §1, §2

adenovirus type 5 = experiment: adenovirus replication in fibroblasts; format: cell-based; conditions: for decrease in adenovirus replication / titer: MOI 1, 72 h; for effect on adenovirus replication, in words: indicated amounts of drug
HSV-1 = HSV-1 replication in fibroblasts; format: cell-based, herpes simplex virus type 1; conditions: for effect on HSV-1 growth, in words: indicated amounts of drug
[4] = tested on: influenza A strain WSN/33; experiment: influenza A replication in fibroblasts; format: cell-based; conditions: for effect on influenza A growth, in words: indicated amounts of drug
[5] = tested on: triacylglycerol (TG) synthesis; conditions: cited from earlier work
[6] = tested on: cholesterol ester (CE) synthesis; conditions: cited from earlier work
ACSLs = conditions: rat liver cell sonicates; cited from earlier work
atherosclerosis = conditions: oral, 10 mg/kg/day, two months, cited from earlier work
[7] = tested on: HCV JFH1 strain derivative; experiment: release of infectious HCV from Huh7.5 cells, TCID50 assay
Procedure: Huh7.5 cells were infected with a derivative of HCV JFH1 strain (MOI=0.1 TCID50/cell). Infected cells were maintained in medium containing 10% fetal calf serum plus DMSO (0 nM triacsin C) or triacsin C at the indicated concentrations. Media were harvested at 72 h and infectious virus was quantified by standard TCID50 assay on Huh7.5 cells.
Virus yield in the medium at 72 h after infection was determined.
Huh7.5 cells were infected a derivative of HCV JFH1 strain (MOI=0.1 TCID50/cell) Infected cells were maintained in medium containing 10% fetal calf serum plus DMSO (0 μg/ml TOFA) or TOFA at the indicated doses. Media were harvested at 72 h and infectious virus was quantified by standard TCID50 assay on Huh7.5 cells.
Huh7.5 cells which was infected with HCV and treated with indicated amounts of TOFA (FIG. 21).

[8] = mice, oral, 10 mg/kg, 2 hours after treatment; cited from earlier work

Chain of hELOVL3 (Q9HB03 whole entry): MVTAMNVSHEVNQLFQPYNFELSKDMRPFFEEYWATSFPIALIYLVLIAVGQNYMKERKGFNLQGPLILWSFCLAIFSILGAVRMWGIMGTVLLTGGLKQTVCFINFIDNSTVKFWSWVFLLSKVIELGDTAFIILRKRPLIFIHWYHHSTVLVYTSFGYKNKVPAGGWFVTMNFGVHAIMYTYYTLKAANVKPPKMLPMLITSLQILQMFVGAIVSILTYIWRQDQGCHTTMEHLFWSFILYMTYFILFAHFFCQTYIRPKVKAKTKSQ
Procedure for MDCK cells: Bottom panel: Approximately 90% confluent MDCK cells were infected with WSN/33 at a multiplicity of (0.001 pfu/cell) in the presence of PBS (0 mM) or AOAA at the indicated concentrations. Virus yield in the medium at indicated times after infection was determined by standard plaque assay on MDCK cells.
Replication of influenza A (WSN/33 strain) was measured in MDCK cells at a multiplicity of infection of 0.001 particle forming unit per cell.

Compound: CCCCCCCCN1CCc2c(C)c(CC(=O)O)c(C)c(NC(=O)C(C)(C)C)c21 [Pactimibe]
- IC50 (Liver ACAT): 312 nM

Compound: O=C(Nc1ccc(C(F)(F)F)cc1)N1C2CCC1CC(S(=O)(=O)c1ccccc1)C2 (stereo not drawn) [endo-1k]
- inhibition of HCMV replication (HCMV AD169 strain; 50 μM): ~400 fold
- HCMV late pUL99 expression, in words (late viral protein pUL99): dramatically reduced
- toxicity on the cells (MRCS human fibroblasts [1]): Without inducing any toxicity
- IC50 (hELOVL6; read-out: hELOVL6 IC50): ~78 nM

Compound: N=C(N)NCc1cccc([131I])c1 [MIBG, meta-iodo-benzylguanidine]
- inhibition of HCMV replication (HCMV AD169 strain; 100 μM, fibroblasts): 13 fold
- HCMV-induced accumulation and depletion of lipid droplets ([2]; 100 μM): blocked

Compound: O=C(Nc1ccc(C(F)(F)F)cc1)N1C2CCC1CC(S(=O)(=O)c1ccccn1)C2 (stereo not drawn) [endo-1w]
- IC50 (hELOVL6; read-out: hELOVL6 IC50): ~78 nM
- IC50 (hELOVL6; read-out: human ELOVL6 IC50): ~6900 nM

Compound: CCCCCCCN(Cc1ccc(CCC(C)C)cc1)C(=O)Nc1c(F)cc(F)cc1F [CL-283,546]
- IC50 (Liquid Droplet): 35 nM

Compound: COC(=O)c1c2c(c3ccccc3c1O)OC(C)(C)C=C2 [rubimaillin]
- decrease in HCMV virus titer (HCMV AD169 strain; 5 μM): approximately 85%
- reduction of HCMV replication (HCMV AD169 strain; 10 μM): > 80%

Compound: CC(C)=CCc1c([C@H](O)C2OC2(C)C)ccc2[nH]c3c(c12)C[C@@H]1CC[C@@]2(O)C(C)(C)C(=O)CC[C@]2(C)[C@@]31C (some centres unmarked) [Sespendole]
- IC50 (Liquid Droplet): 4000 nM

Compound: CC(=O)Nc1nnc(S(N)(=O)=O)s1 [acetazolamide]
- inhibition at 25 µM (HCMV AD169 strain; Human betaherpesvirus 5, AD169, Fibroblast, read-out: inhibition of HCMV replication): ~80%

Compound: CC(c1cc2ccccc2s1)N(O)C(N)=O (centres unmarked) [zileuton]
- reduction of HCMV replication (HCMV AD169 strain; 100 μM): ~90%

Compound: COc1cccc(C2(CNC(=O)Nc3c(C(C)C)cc(N)cc3C(C)C)CCN(c3ccccc3C)CC2)c1 [Compound 12g]
- IC50 (ACAT): 68 nM

Compound: Cc1cc(NC(=O)[C@@H]2Cc3ccc(N(C)C)cc3CN2C(=O)C(C)C)c(C)c(C)c1O [Compound 21]
- IC50 (Liver ACAT): 113 nM

Compound: STX6 (sense CAAGUUGUCAGGGACAUGATT; antisense UCAUGUCCCUGACAACUUGTT; chemistry not given here)
- Fold reduction of HCMV replication (HCMV): 1.92 fold

Compound: O=C1Nc2ccc(-c3ccn[nH]3)cc2[C@](CNC(=O)c2ccc(F)cc2)(C(F)(F)F)O1 [(S)-1y]
- inhibition of HCMV replication (HCMV AD169 strain; 25 μM): ~40 fold
- inhibition of HCMV replication (HCMV AD169 strain; 50 μM): > 1000 fold
- HCMV late pUL99 expression, in words (late viral protein pUL99): dramatically reduced
- IC50 (hELOVL3): ~130 nM
- IC50 (ELOVL6): 169 nM
- IC50 (ELOVL3): > 5000 nM
- toxicity on the cells (MRCS human fibroblasts [3]): Without inducing any toxicity

Compound: CC(C)c1cc(C(C)C)c(CC(=O)NS(=O)(=O)Oc2c(C(C)C)cccc2C(C)C)c(C(C)C)c1 [Avasimibe]
- IC50 (ACAT): 479 nM

Compound: NOCC(=O)O [AOAA, aminooxyacetic acid]
- decrease in HCMV replication (HCMV AD169 strain; 0.5 mM): 100 fold
- decrease in adenovirus replication / titer (adenovirus type 5; 0.5 mM): 20 fold
- decrease in adenovirus replication / titer (adenovirus type 5; 1 mM): 500 fold
- host cell toxicity by light microscopy (MDCK cells): no evidence of host cell toxicity

Compound: STX8 (sense GACUACUUCUGGCAUCCUUTT; antisense AAGGAUGCCAGAAGUAGUCTT; chemistry not given here)
- Fold reduction of HCMV replication (HCMV): 1.96 fold

Compound: CCC(C)(C)C(=O)O[C@H]1C[C@@H](C)C=C2C=C[C@H](C)[C@H](CC[C@@H]3C[C@@H](O)CC(=O)O3)[C@H]21 [simvastatin]
- decrease in HCMV virus titer (HCMV AD169 strain; 5 μM): approximately 90%

Compound: CCC/C=C/C/C=C/C=C/C=N/NN=O [triacsin C]
- reduction of yield of infectious HCMV (HCMV AD169 strain; 50 nM, presence of serum): > 8 fold
- reduction of yield of infectious HCMV, factor (HCMV AD169 strain; 250 nM, added with virus, 96 h, 10% serum): 85
- effect on HCMV replication / yield, in words (HCMV AD169 strain): substantially inhibited
- inhibition of HCMV replication (HCMV AD169 strain; nanomolar concentrations): > 10 fold
- effect on HSV-1 growth, in words (HSV-1): substantially inhibited
- inhibition of HSV-1 replication (HSV-1; nanomolar concentrations): > 10 fold
- effect on influenza A growth, in words [4]: substantially inhibited
- inhibition of influenza A replication ([4]; nanomolar concentrations): > 10 fold
- effect on adenovirus replication, in words (adenovirus type 5): not
- depletion of lipid droplets ([2]; 100 nM): > 90%
- lipid droplets by oil red O staining ([2]; 250 nM): no detectable lipid droplets
- lipid droplet formation induced by HCMV infection ([2]; HFF cells): reduced lipid droplet formation
- IC50 [5]: 100 nM
- IC50 [6]: 190 nM
- IC50 (ACSLs): ~8700 nM
- progression of atherosclerosis (atherosclerosis; LDLR-/- mice): significantly inhibited
- toxicities (atherosclerosis; mice): no significant toxicities noted
- release of infectious HCV particles, in words ([7]; indicated amounts of drug, 72 h): significantly reduced
- viability of MRC-5 fibroblasts (MRCS human fibroblasts [3]; 50 nM, presence of serum): without discrenably impacting
- appearance of cells (MRCS human fibroblasts [3]; 100 or 250 nM, 10% fetal calf serum): did not alter the appearance of cells
- cell viability (MRCS human fibroblasts [3]; absence of fetal calf serum, doses up to 10 μM): no discernable impact
- cell viability (MRCS human fibroblasts [3]; doses of ≦500 nM, 10% fetal calf serum): little effect
- appearance of cells (MRCS human fibroblasts [3]; ≦500 nM, 10% fetal calf serum): some cell rounding

Compound: CCC(C)[C@@H]1C(=O)/C(=C(/O)[C@@H]2[C@@H]3[C@H](C)C[C@H](C)C[C@@H]3C=C[C@@H]2[C@]2(C)O[C@H]2C)C(=O)N1C (some centres unmarked) [PF-1052]
- reduction of HCMV viral yield (HCMV AD169 strain; 5 μM): > 50 fold
- reduction of HCMV yield, prolonged treatment (HCMV AD169 strain; 5 μM, medium replaced daily, 10 days after infection): > 5000 fold
- reduction of HCMV viral yield (HCMV AD169 strain; 10 μM): > 300 fold
- effect on HCMV replication / yield, in words (HCMV AD169 strain): profoundly inhibits
- effect on HSV-1 growth, in words (HSV-1): substantially inhibited
- effect on influenza A growth, in words [4]: substantially inhibited
- effect on adenovirus replication, in words (adenovirus type 5): not and not inhibited
- HCMV late pUL99 expression, in words (late viral protein pUL99): markedly reduced
- inhibition at 10 µM (late viral protein pUL99; Human betaherpesvirus 5, 10 μM, read-out: inhibition of HCMV late protein synthesis): > 99%
- inhibition of release of infectious HCV particles ([7]; 5 μM): 10 fold
- inhibition of release of infectious HCV particles ([7]; 10 μM): > 100 fold
- host cell toxicity by light microscopy (MRCS human fibroblasts [3]; 5 and 10 μM): no evidence of host cell toxicity

Compound: CCC(C)[C@@H]1C(=O)C2(C[C@@H]3[C@@H]4[C@H](C)C[C@H](C)C[C@@H]4C=C[C@@H]3[C@](C)(O)[C@H]2C)C(=O)N1C (some centres unmarked) [Spylidone]
- IC50 (Liquid Droplet): 42000 nM

Compound: CC(C)=C[C@H]1O[C@H]2[C@H]3O[C@@]34[C@H](CC[C@@]3(C)[C@@]4(O)CC[C@H]4Cc5c([nH]c6ccccc56)[C@@]43C)O[C@@H]2C(C)(C)O1 [Terpendole C]
- IC50 (Liquid Droplet): 2500 nM

Compound: Cc1[nH]n(-c2ccc(OC(F)(F)F)cc2)c(=O)c1C1(C(F)(F)F)C(=O)N(c2ccccc2)C2=C1C(=O)CC(C)(C)C2 (centres unmarked) [Compound 37]
- inhibition of HCMV replication (HCMV AD169 strain; 35 μM): > 10 fold
- HCMV virus yield (HCMV AD169 strain; 70 μM): undetectable levels
- HCMV late pUL99 expression, in words (late viral protein pUL99): substantially reduced
- IC50 (hELOVL3): ~337 nM
- liver level [8]: 50 µM
- plasma level [8]: 30 µM
- toxicity on the cells (MRCS human fibroblasts [3]): Without inducing any toxicity

Compound: CCCCn1c(=O)c(NC(=O)Nc2c(C(C)C)cc(N)cc2C(C)C)c(-c2cccc(OCCCO)c2)c2cccnc21 [SMP-797]
- IC50 (ACAT): 31 nM
